{
  "source": "patent US20050044581A1",
  "about": "“Animals and cells containing a mutated alpha2/omega1 gene” (priority 2003, published 2005)",
  "type_in_all_cases": "in vivo, mouse",
  "key": {"[1]": {"tested_on": "R217A knock-in and wild-type mice", "experiment": "Chronic constriction injury (CCI)-induced static allodynia, von Frey hairs", "settings": "for efficacy in CCI-induced allodynia: 30-100mg/kg, p.o.; for effect on CCI-induced punctate allodynia: sub cutaneous 30-100mg/kg, FIG. 8", "text": "Animals were placed in an anaesthetic chamber and anaesthetised with a 2% isofluorane O2 mixture. The right hind thigh is shaved and swabbed with 1% iodine. Animals were then transferred to a homeothermic blanket for the duration of the procedure and anaesthesia maintained during surgery via a nose cone. The skin was cut along the line of the thigh bone. The common sciatic nerve was exposed at the middle of the thigh by blunt dissection through biceps femoris. Proximal to the sciatic trifurcation, about 5mm of nerve was freed by inserting forceps under the nerve and the nerve gently lifted out of the thigh. The forceps were gently opened and closed several times to aid clearance of the fascia from the nerve. Suture was pulled under the nerve using forceps and tied in a simple knot until slight resistance was felt and then double knotted. The procedure was repeated until 3 ligatures (4-0 silk) were tied loosely around the nerve with approx 1 mm spacing. The incision was closed in layers and the wound treated with topical antibiotics.\nAnimals were habituated to wire test cages prior to the assessment of allodynia. Static allodynia was evaluated by application of von Frey hairs (Stoelting, Wood Dale, Ill., U.S.A.) in ascending order of force ([…], 0.4, 0.6, 1.0, 1.5 and 2.0 g) to the plantar surface of hind paws. Each von Frey hair was applied to the paw for a maximum of 6 seconds, or until a withdrawal response occurred. Once a withdrawal response to a von Frey hair was established, the paw was re-tested, starting with the filament below the one that produced a withdrawal, and subsequently with the remaining filaments in descending force sequence until no withdrawal occurred. Each animal had both hind paws tested in this manner. The lowest amount of force required to elicit a response was recorded as paw withdrawal threshold (PWT) in grams. […]\nFollowing drug administration PWT were re-assessed for up to 4 h. The static allodynia data is expressed as median force (g) required to induce a paw withdrawal in 6-7 animals per group (vertical bars represent 1st and 3rd quartiles) *P<0.05, **P<0.01***P<0.005 (Mann Whitney U test) from vehicle treated group at each time point.\nIt was examined whether pregabalin produced an anti-allodynic action in both the knock-in and wild-type mice. […] Baseline (BL) paw withdrawal thresholds (PWT) to von Frey hairs were assessed. Following drug administration PWT were re-assessed for up to 4 h. The static allodynia data is expressed as median force (g) required to induce a paw withdrawal in 6-7 animals per group (vertical bars represent 1st and 3rd quartiles) *P<0.05, **P<0.01***P<0.005 (Mann Whitney U test) from vehicle treated group at each time point."}, "[2]": {"tested_on": "α2/δ1 R217A wild type, heterozygous and homozygous mice", "experiment": "Formalin foot-pad procedure (formalin-induced hyperalgesia)", "settings": "PO 120 minutes prior to testing, FIG. 4", "method": "Male α2/δ1 R217A wild type, heterozygous, and homozygous mice, weighing 19-40 grams, were used for testing. Animals were maintained on a 12 hour light/dark cycle with food and water available ad libitum. Animals were food deprived overnight the day before testing. On test day, animals were acclimated to the observation chambers for approximately 60 min. The observation chambers were eight inch square boxes consisting of solid, acrylic plastic mirrors for the floor and 3 walls. The fourth wall was clear acrylic that allowed for observation. Animals were dosed PO with either vehicle or pregabalin, 120 minutes prior to testing at a dose volume 10 ml/kg. At test time, animals received a 25 μL injection of a 5% formalin solution in water in the plantar surface of the left hind foot. […] These behaviors were timed using a hand-held stopwatch and recorded at 5 min intervals. Data was analyzed by the two distinct phases of responding. Early phase responding included Minutes 0-10, and late phase responding included Minutes 11-45. The total time spent licking by drug-treated animals in each phase was compared to the total time spent licking by vehicle-treated animals."}, "[3]": {"tested_on": "R217A mutant lines and background strain mice", "experiment": "Maximal electroshock procedure (MES)", "method": "WT mice were tested at 0.1 mA, HET mice were tested at 0.4 mA and KI mice were tested at 0.7 InA. Each experiment included a no-shock vehicle control group for direct comparison to the concurrent vehicle punished-responding group to determine percent suppression of drinking. […] Sedation was noted by the observer as previously described. […] Electroshock in mice was delivered using corneal electrodes with varied electroshock intensity. Current was delivered (60 Hz sinusoidal current, 11 to 17 mA baseline to peak vs. 50 mA for 0.2 s) using a constant-current stimulator (Wahlquist Instruments, Salt Lake City, Utah). The intensities of current necessary to produce tonic extensor seizures for each mouse strain and mutant lines in all of the mice were determined. These currents were then used for further testing of mice with pregabalin. All dose-response testing was conducted at the previously determined time of peak drug effect. Groups of 10 mice each were give various intraperitoneal doses of pregabalin dissolved in 0.9% saline, diazepam (veh) or phenytoin and given in a volume of 10 ml/kg of body weight. […] At least four groups of mice and each animal was employed once. The animals, pretreated with different doses of the tested drugs, were challenged with one electroshock at previously determined times of peak drug effect (pregabalin: 120 min; diazepam: 60 min; phenytoin; 60 min)"}},
  "data": [
    {"molecule": "CC(C)C[C@H](CN)CC(=O)O", "note": "[pregabalin]", "values": [
      {"measurement": "efficacy in CCI-induced allodynia", "setting": "[1]; knock-in animals", "result": "failed to demonstrate any efficacy"},
      {"measurement": "effect on CCI-induced punctate allodynia", "setting": "[1]; knock-in mice", "result": "no effect"},
      {"measurement": "efficacy in CCI-induced allodynia", "setting": "[1]; wild type mice", "result": "typical efficacy"},
      {"measurement": "effect on CCI-induced punctate allodynia", "setting": "[1]; wild type mice", "result": "significant blockade"},
      {"measurement": "efficacy on formalin-induced hyperalgesia", "setting": "[2]", "result": "reduced efficacy"},
      {"measurement": "potency in protecting against seizures", "setting": "[3]; mutant mice vs wild-type, heterozygous or back-ground strains", "result": "less potent"},
      {"measurement": "anticonvulsant effects", "setting": "[3]; −/− mice as compared to +/+ mice, FIG. 9", "result": "reduced"},
      {"measurement": "sensitivity to effects in MES", "setting": "[3]; −/− mice vs +/+ mice, FIG. 9", "result": "less sensitive"}
    ]}
  ]
}
